# Assay results taken from patent US20090030071A1, “Treatment of Cardiovascular Disease in Mexican Americans Using Nebivolol” (priority 2007, published 2009).
# Entries after “also recorded” stand apart in the source; their conditions may differ.
# Key:
# [1] = system: human umbilical vein endothelial cells (HUVECs); experiment: Endothelial-dependent NO release from HUVECs of non-Hispanic white and Mexican American donors, measured with electrochemical nanosensors; type: cell-based; details: for increase in NO release (NO bioavailability): 24 h pretreatment with nebivolol at 1.0 μM (FIG. 4)
# Method: The effects of nebivolol and atenolol on endothelial-dependent NO release were tested in human umbilical vein endothelial cells (HUVECs). Human umbilical vein endothelial cells were isolated into primary cultures from non-Hispanic white and Mexican American female donors by Clonetics (San Diego, Calif.) and purchased as proliferating cells. All cell culture donors were healthy, with no pregnancy or prenatal complications. None of the donors took any drugs regularly and all were nonsmokers and consumed regular caloric/content diet. The identification of race was defined by self-report. The cultured cells were incubated in 95% air/5% CO2 at 37° C. and passage by an enzymatic (trypsin) procedure. […] Before the experiments, the cells (from second or third passage) were rinsed twice with Tyrode-HEPES buffer with 1.8 mmol/L CaCl2. Drugs were obtained from Mylan Laboratories (Morgantown, W. Va.). NO measurement was carried out with electrochemical nanosensors The design was based on previously developed and well-characterized chemically modified carbon-fiber technology ([…], Nature 358, 676-678, 1992; […]. Anal. Chem. 69, 454-462, 1997). Each of the nanosensors was made by depositing a sensing material on the tip of a carbon fiber (length 4-5 μm, diameter 0.2-0.5 μm). The fibers were sealed with nonconductive epoxy and electrically connected to copper wires with conductive silver epoxy. […] The NO nanosensors (diameter 1-2 μm) with a platinum wire (0.1 mm) counter electrode and saturated calomel reference electrode (SCE) were applied. Differential pulse voltammetry (DPV) and amperometry were performed with a computer-based Gamry VFP600 multichannel potentiostat. DPV was used to measure the basal NO concentrations, and amperometry was used to measure changes in NO concentrations from its basal level with time. The DPV current at the peak potential characteristic for NO oxidation (0.65 V) […] was directly proportional to the local concentrations of these compounds in the immediate vicinity of the sensor. Linear calibration curves (current vs. concentration) were constructed for each sensor from 10 nmol/L to 3 μmol/L before and after measurements with aliquots of NO standard solutions, respectively. The detection limit of the sensors was 10^-9 mol/L. The quantification of each analyte (concentration in nmol/L) was performed using a maximum current from amperograms and standard calibration curves. A reproducibility of measurements with nanosensors is relatively high (between 5-12%). […] The sensors were slowly raised 4±1 μm from the surface of a single endothelial cell. The HUVEC preparation is stable over the course of these experiments with the cells remaining viable in culture for >24 hours. Under non-stimulating conditions, basal levels of NO release are very low (<30 nM). […]
# [2] = system: human umbilical vein endothelial cells; experiment: CaI-stimulated endothelial NO release in HUVECs from MA and NHW donors after 24 h pre-treatment (nanosensor array); type: cell-based; details: for enhancement of NO release: pretreatment 24 hr, 1.0 μM, CaI 1.0 μM stimulus
# Method: (§1) Endothelial function in cells from normotensive, age-matched Mexican American (MA) and Non-Hispanic White (NHW) donors, as well as the effects of treatment with nebivolol was also determined. Endothelial NO and peroxynitrite (ONOO^−) release was measured simultaneously in human umbilical vein endothelial cells from age-matched MA and NHW donors using a nanosensor array. The effects of nebivolol on NO and ONOO^− production was evaluated following pre-treatment (24 h) using calcium ionophore (CaI) as a receptor-independent stimulus. Levels of eNOS were measured by Western blot analysis. Drug-membrane interactions were determined by small angle x-ray diffraction analysis.
# [3] = system: human umbilical vein endothelial cells; experiment: CaI-stimulated peroxynitrite (ONOO−) release in HUVECs from MA and NHW donors after 24 h pre-treatment (nanosensor array); type: cell-based; details: for reduction of ONOO− levels: nebivolol pretreatment
# Method: as §1
# eNOS = eNOS levels by Western blot analysis in endothelium; type: cell-based, human; details: MA endothelium, nebivolol treatment
# Method: as §1
# [4] = system: arteries isolated from control Wistar-Kyoto (WKY) rats; experiment: NO release from arteries isolated from control Wistar-Kyoto (WKY) rats; design: species or system rat; details: for amount of NO released: WKY rat arteries, concentration of 10 μM (maximum NO release)
# Method: In one aspect of the present invention, a composition comprising nebivolol is administered to a person of Hispanic descent, particularly a Mexican American, wherein nebivolol is administered in a mixture containing a greater proportion (enantiomeric excess) of the l-steroisomer of nebivolol. In another embodiment, all or substantially all of the mixture comprises the l-stereoisomer of nebivolol. NO release levels from arteries isolated from control Wistar-Kyoto (WKY) rats following treatment with nebivolol racemate, l-nebivolol or d-nebivolol vary. […] At this concentration, the amount of NO released was 340±30 nM, 284±24 nM, and 180±21 nM for l-nebivolol, nebivolol racemate and d-nebivolol, respectively. These findings confirm that nebivolol can stimulate NO release in the intact artery in a stereoselective manner. See also, Xhonneux R, Wouters L, Reneman R S, et al. The l-enantiomer of nebivolol potentiates the blood pressure lowering effect of the d-enantiomer. Eur. J. Pharmacol. 1990; 181:261-265.
# aortic endothelial cells = experiment: STZ-induced diabetes: CaI-induced endothelial-dependent NO release from aortic endothelial cells after nebivolol treatment of animals; type: in vivo; details: nebivolol treatment prior to sacrifice at 13 weeks, p=0.1273
# Excerpt: FIG. 6 depicts the effects of STZ-induced diabetes on the ratio of CaI-induced NO/ONOO release from aortic endothelial cells in the absence and presence of nebivolol treatment prior to sacrifice of animals at 13 weeks. Values are reported as mean±SD. *p<0.0001 versus control and ^†p<0.001 versus STZ treatment (Student t-test). FIG. 7 depicts the effects of STZ-induced diabetes on CaI-induced endothelial-dependent NO release from aortic endothelial cells in the absence and presence of nebivolol treatment prior to sacrifice of animals at 13 weeks. Values are reported as mean±SD. *p<0.0001 versus control and ^†p<0.001 versus STZ treatment (Student t-test).
compound,measurement,setting,value
"OC(CNCC(O)C1CCc2cc(F)ccc2O1)C1CCc2cc(F)ccc2O1 (racemic) [nebivolol, α, α′-[iminobismethylene]bis[6-fluoro-3,4-dihydro-2H-1-benzopyran-2-methanol]]",increase in NO release (NO bioavailability),[1]; HUVECs from Mexican American donors,138 ± 2 nM
same,increase in NO release (NO bioavailability),[1]; HUVECs from white donors,68 ± 3 nM
same,"increase in NO bioavailability, Mexican American samples relative to white donors","[1]; nebivolol at 1.0 μM, 24 h pretreatment",two-fold greater
same,enhancement of NO release,[2]; MA cells,57%
same,increase of ratio of NO to ONOO− (indicator of eNOS coupling),"[2]; MA, following nebivolol treatment",more than 5 fold
same,enhancement of NO release,[2]; NHW cells,20%
same,ONOO− level after treatment,"[3]; MA endothelium, from 746±12 nM without treatment",195 ± 10 nM
same,reduction of ONOO− levels,[3]; MA endothelium,75%
same,ONOO− level after treatment,"[3]; NHW endothelium, from 416±7 nM without treatment",191 ± 13 nM
same,reduction of ONOO− levels,[3]; NHW endothelium,50%
same,increase of eNOS levels,eNOS,two-fold
same,amount of NO released,[4],284 ± 24 nM
same,CaI-induced endothelial-dependent NO release versus non-diabetic control animals,aortic endothelial cells,not a statistically significant difference as compared to non-diabetic control animals
CC(C)NCC(O)COc1ccc(CC(N)=O)cc1 (stereo not drawn) [atenolol],stimulation of NO release,"[1]; either racial group, identical conditions (24 h pre-incubation at 1.0 or 5.0 μM, FIGS. 4 and 5)",failed to stimulate any significant amount of NO release; also recorded: did not have any effect
same,"effects on NO release, ONOO− levels, NO/ONOO− ratio and eNOS levels",[2]; MA and NHW HUVECs,not observed
O[C@H](CNC[C@@H](O)[C@H]1CCc2cc(F)ccc2O1)[C@@H]1CCc2cc(F)ccc2O1 [d-nebivolol],ability to stimulate NO release (order of activity),[4]; WKY arterial vessels,weakest stimulant of NO release
same,amount of NO released,[4],180 ± 21 nM
O[C@@H](CNC[C@H](O)[C@H]1CCc2cc(F)ccc2O1)[C@@H]1CCc2cc(F)ccc2O1 [l-nebivolol],amount of NO released,[4],340 ± 30 nM
